Earlier results on two substances are cited in patent US20070244041A1, “Peptide Yy Analogues” (Reoscience A/S, priority 2004, published 2007).

No end group written: not given here.

Series [1] concerns vagal motor neurons. As to conditions: applied onto vagal motor neurons.
Series [2] deals with Y2 over Y1 receptors.

With “PYY13-36: truncated PYY, a Y2 selective agonist (SPEELNRYYASLRHYLNLVTRQRY; ends and bridges not checked; UniProt P10082 41-64, looked up, fragment)”, in series [1], the “vagal motor neurons activated” value is on record as “approximately 5%” and the “vagal motor neurons with inhibited firing rate” value was “approximately 50%”. As to “NPY3-36: truncated neuropeptide Y with high selectivity for Y2 over Y1 receptors”, the “selectivity for Y2 over Y1 receptors” value in series [2] was “high selectivity”.
